From US20220184222A1, “BICYCLE TOXIN CONJUGATES AND USES THEREOF” (BicycleTx Limited, priority 2019, published 2022)
Starred links: 1 amine or outer side, 2 acyl side, 3 side chain; linkers in the order of their positions; H or OH if unused. Non-standard residues stand in square brackets, D forms with d. Residues, ends and D or L forms follow the SMILES beside them. *: point of attachment. Dolaproine = CO[C@@H]([C@@H]1CCCN1)[C@@H](C)C(=O)O; Dil = CC[C@H](C)[C@H](NC)[C@@H](CC(=O)O)OC; PABC = O=C(OCc1ccc(N[*:1])cc1)[*:2]; X1 = O=C(CCCC(=O)*)ON1C(=O)CCC1=O; X2 = C[C@@H](N*)[C@@H](O)c1ccccc1; Cit = NC(=O)NCCC[C@H](N)C(=O)O; NMeV = CN[C@H](C(=O)O)C(C)C

How the values were obtained:
Format in all cases: in vivo, Mus musculus
CTG-0838 = test: Champions TumorGraft NSCLC PDX efficacy, model CTG-0838
Procedure: (§1) Mice were implanted subcutaneously into the left flank with tumor fragments from one of the various models. After tumors grew to an average of 150-300 mm^3, mice were treated by IV administration Q7Dx4 (n=2) with vehicle or 3 mg/kg of BT5528. Effects on tumor growth were evaluated by measuring percent tumor growth inhibition (% TGI), and the number of complete responders (CR), partial responders (PR), and tumor-free survivors (TFS). Tolerability was assessed by body weight loss, lethality, and clinical signs of adverse treatment-related side effects. Tumor volumes and body weights were measured twice a week.
(§2) Dosing solutions of BT5528 […] were pre-formulated. These dosing solutions were stored at −80° C. in the dark. On each day of dosing, a frozen aliquot of each test agent was thawed, stored at 2-8° C. and used for dosing.
(§3) The animals used in this study are described below: • Species: Mus musculus • Strain: Athymic Nude-Foxn1^nu (immune-compromised) • Source: Envigo (Indianapolis, Ind., USA) • Number of animals per group: 2 • Age and sex: At least 6-8 weeks of age at start of dosing, female • Weight: At least 18 grams at start of dosing • Acclimation period: 3 days
(§4) Stock mice were implanted with tumor cells from Champions TumorGraft® models CTG-0160, CTG-0170, CTG-0178, CTG-0192, CTG-0363, CTG-0808, CTG-0838, CTG-0848, CTG-1212, CTG-1502, CTG-1535, CTG-2011, CTG-2393, CTG-2539 or CTG-2540. After the tumors reached 1000-1500 mm^3, they were harvested and the tumor fragments (approximately 5×5×5 mm^3) were implanted SC in the left flank of the female study mice. Each animal was implanted with a specific passage lot and documented. Tumor growth was monitored twice a week using digital calipers and the tumor volume (TV) was calculated using the formula (0.52×[length×width^2]). When the TV reached an average volume of 150-300 mm^3, animals were matched by tumor size and assigned into Vehicle Control and treatment groups (n=2/group) and dosing was initiated on Day 0. After the initiation of dosing on Day 0, animals were weighed twice per week using a digital scale and TV was measured twice per week and also on the final day of study. The study was completed when the mean tumor volume of Vehicle Control reached 1500 mm^3 or up to Day 60, whichever occurred first.
(§5) Beginning on Day 0, animals were observed daily and weighed twice weekly using a digital scale; data including individual and mean gram weights, mean percent weight change versus Day 0 (% vD0) were recorded for each group and % vD0 plotted at study completion. […] Treatment resulting in a mean % vD0>20% and/or >10% mortality was considered above the maximum tolerated dose. Maximum mean % vD0 (weight nadir) for each treatment group was reported at study completion.
(§6) Inhibition of tumor growth was determined by calculating the percent TGI (100%×[1−(final MTV−initial MTV of a treated group)/(final MTV−initial MTV of the control group)]). Treatment started on Day 0.
(§7) Additional endpoints used to evaluate efficacy were: the number of complete responders (CR), partial responders (PR), and tumor-free survivors (TFS). PRs were considered exclusive of CRs, as were TFS.
(§8) Statistical analyses of anti-tumor efficacy were performed using one-way ANOVA followed by Dunnett's multiple comparisons test (GraphPad Prism version 8.2.0). Significant p-values=<0.05.
Animals were dosed according to the schedule on Table 7-1. The study was terminated on Day 27.

[1] = test system: 15 low-passage Champions TumorGraft models of human non-small cell lung cancer; test: Panel of 15 NSCLC patient derived tumor xenografts (Champions PDX indication screen), overall; details: weekly 3 mpk
Procedure: This study was conducted to evaluate the in vivo antitumor activity of BT5528 as monotherapy in 15 low-passage Champions TumorGraft® models.
as §1, with “week. […]” for “week.”
Stock mice were implanted with tumor cells from Champions TumorGraft® models CTG-0160, CTG-0170, CTG-0178, CTG-0192, CTG-0363, CTG-0808, CTG-0838, CTG-0848, CTG-1212, CTG-1502, CTG-1535, CTG-2011, CTG-2393, CTG-2539 or CTG-2540. […] Tumor growth was monitored twice a week using digital calipers and the tumor volume (TV) was calculated using the formula (0.52×[length×width^2]). […] After the initiation of dosing on Day 0, animals were weighed twice per week using a digital scale and TV was measured twice per week and also on the final day of study. […]

CTG-1502 = test: Champions TumorGraft NSCLC PDX efficacy, model CTG-1502
Procedure: as §1, §2, §3, §4, §5, §6, §7, §8
Animals were dosed according to the schedule on Table 7-1. The Vehicle Control reached endpoint on Day 17 and the study was terminated on Day 28.

[2] = CTG-0838, 3 mg/kg IV Q7Dx4, Day 0-27
[3] = CTG-1502, 3 mg/kg IV Q7Dx4, Day 0-28

## CC[C@H](C)[C@@H]([C@@H](CC(=O)N1CCC[C@H]1[C@H](OC)[C@@H](C)C(=O)N[C@H](C)[C@@H](O)c1ccccc1)OC)N(C)C(=O)[C@@H](NC(=O)[C@H](C(C)C)N(C)C(=O)OCc1ccc(NC(=O)[C@H](CCCNC(N)=O)NC(=O)[C@@H](NC(=O)CCCC(=O)ON2C(=O)CCC2=O)C(C)C)cc1)C(C)C [BT5528] (X1-V[Cit][PABC][NMeV]V[Dil][Dolaproine]-X2)
CTG-0838; 3 mg/kg IV Q7Dx4
  mean body weight loss: no mean body weight loss
CTG-0838; 3 mg/kg IV Q7Dx4, Day 27
  MTV (mean tumor volume): 269±128 mm^3
  TGI: 97%
CTG-0838; [2]
  # CR (complete responders): 0/0/0
  # PR (partial responders): 0/0/0
  # TFS (tumor-free survivors): 0/0/0
CTG-0838; CTG-0838, 3 mg/kg IV Q7Dx4, Day 27
  % TGI: 97%
CTG-0838; CTG-0838, BT5528 3 mg/kg IV Q7Dx4, Day 27, n=2
  Day 27 Tumor Volume Mean TV ± SEM: 269 ± 128 mm^3
[1]
  models with tumor growth inhibition of 50% or more: 10 out of 15
CTG-1502; 3 mg/kg IV Q7Dx4, Day 17
  MTV (mean tumor volume): 976±229 mm^3
  TGI: 48%
CTG-1502; [3]
  # CR (complete responders): 0/0/0
  # PR (partial responders): 0/0/0
  # TFS (tumor-free survivors): 0/0/0
CTG-1502; CTG-1502, 3 mg/kg IV Q7Dx4, Day 17
  % TGI: 48%
CTG-1502; CTG-1502, BT5528 3 mg/kg IV Q7Dx4, Day 17, n=2
  Day 17 Tumor Volume Mean TV ± SEM: 976 ± 229 mm^3
